Data published in patent US7863295B2, “Treatments for neuropathy” (Children's Medical Center Corporation, priority 2008, dated 2011).

Assays:
wild type mice [1] = experiment: Hot plate test (thermal nociception) in wild type mice treated topically with XIB4035 cream; assay type: in vivo; conditions: cream 1.2 mM on hind paws twice daily for 4 weeks from P21
Method: (§1) We generated a cream containing XIB4035 (1.2 mM) and applied it directly to the hind paws of GFAP-DN-erbB4 and wild type mice twice daily for a period of 4 weeks starting at the time of weaning (P21). […] Thus, these experiments would test whether activation of Ret signaling has therapeutic effects after disease onset. To control for potential effects of the control cream, mice of both genotypes were treated in the same way with the base cream without the drug. Mice were tested for responses to noxious thermal stimulus prior to the initiation of treatment and every 7 days throughout the treatment period. […] Together, these findings indicate that topical treatment with XIB4035 preserves the ability of mice with SFN to respond to noxious heat stimulus without inducing hypersensitivity.
(§2) Animals and induction of neuropathy using RTX. Transgenic mouse lines used were as previously described (6, 8). Animals were kept in the animal facility with free access to food and water. Behavioral experiments were performed in a quiet environment at the same time of day. […] Paw withdrawal latency was measured as the time required for the mouse to visibly respond to the thermal stimulus, e.g. licking paws, lifting paws, or jumping off of the plate. […] The threshold was determined as the lowest force that evoked a visible withdrawal response. […]

GFR[…]1 GDNF receptor [2] = target: T1, GFR[…]1 GDNF receptor (Homo sapiens, UniProt P56159); conditions: human cells; reference 11; cited from earlier work
T1 sequence (P56159 25-429): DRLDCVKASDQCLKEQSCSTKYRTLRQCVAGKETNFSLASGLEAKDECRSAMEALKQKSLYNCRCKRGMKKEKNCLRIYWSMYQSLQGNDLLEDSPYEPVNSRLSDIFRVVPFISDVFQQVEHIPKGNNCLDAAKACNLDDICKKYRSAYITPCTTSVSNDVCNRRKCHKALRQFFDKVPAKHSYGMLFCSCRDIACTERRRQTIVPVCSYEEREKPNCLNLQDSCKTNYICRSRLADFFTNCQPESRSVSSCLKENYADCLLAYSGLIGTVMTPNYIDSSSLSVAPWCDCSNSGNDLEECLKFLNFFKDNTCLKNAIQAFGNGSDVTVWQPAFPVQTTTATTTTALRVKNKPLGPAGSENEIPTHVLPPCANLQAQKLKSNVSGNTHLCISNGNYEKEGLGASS

GFAP-DN-erbB4 mice [3] = experiment: Hot plate test (thermal nociception) in GFAP-DN-erbB4 mice treated topically with XIB4035 cream; assay type: in vivo, mouse; conditions: cream 1.2 mM on hind paws twice daily for 4 weeks from P21, vs control cream
Method: as §1, §2

RTX-injected mice [4] = experiment: Skin innervation in RTX-induced SFN; assay type: in vivo, mouse; conditions: topical cream 1.2 mM twice daily for one week
From the text: (§3) As it is unlikely that SFN is always caused by glial dysfunction, we considered it necessary to test the effectiveness of XIB4035 treatment on SFN resulting from a different pathogenic mechanism. Therefore we tested the efficacy of our therapeutic approach in resiniferatoxin (RTX)-induced SFN (9). RTX-induced SFN involves intraperitoneal injection of an ultrapotent capsaicin analog that targets c-fiber terminals by binding to and activating TRPV1 channels resulting in calcium influx, which induces loss of skin innervation and loss of thermal nociception (9). After RTX injection, mice were either treated immediately with XIB4035 or treatment was delayed by 12 hours. Both treatment paradigms yielded similar results.
(§4) Furthermore, innervation of the skin was preserved as a result of XIB4035 treatment in RTX-injected mice. […] Both c-fiber area and the number of fibers per Remak bundle were improved by treatment with XIB4035 in RTX-induced SFN.
Preparation and Use of XIB4035. The cream containing XIB4035 (1.2 mM, Matrix Scientific, Columbia, S.C.) consisted of N-methyl-pyrrolidone (5%), isopropyl myristate (5%) and petroleum jelly (90%). Control cream had the same ingredients without XIB4035. […]

RTX-injected mice [5] = experiment: Hot plate test in resiniferatoxin (RTX)-induced SFN; assay type: in vivo, mouse
From the text: as §3, §4
as §2, with “water.” for “water. Behavioral experiments were performed in a quiet environment at the same time of day.”

GFAP-DN-erbB4 mice [6] = experiment: Cell death detection (TUNEL) in sciatic nerves of GFAP-DN-erbB4 mice; assay type: in vivo, mouse; conditions: sciatic nerve, topical cream 1.2 mM twice daily for 9 days from P21
Method: (§5) Preparation and Use of XIB4035. The cream containing XIB4035 (1.2 mM, Matrix Scientific, Columbia, S.C.) consisted of N-methyl-pyrrolidone (5%), isopropyl myristate (5%) and petroleum jelly (90%). Control cream had the same ingredients without XIB4035. Cream was applied twice daily to the hind paws of isoflurane anesthetized mice starting at P21 for a period of 9 days (for analysis of cell death in sciatic nerves) or 4 weeks (all other studies using GFAP-DN-erbB4). Treatment of RTX-induced neuropathy began at the time of RTX injection or 12 hours after RTX injection and proceeded twice daily for a period of one week.
Cell Death Detection. Sciatic nerves were dissected from mice perfused with 4% paraformaldehyde in PBS and fixed overnight at 4° C. Nerves were embedded in OCT and 16 µm thick transverse sections were processed for TUNEL as follows. Sections were washed 3 times for 5 minutes with PBS followed by proteinase K digestion (0.02 U/mL) in 10 mM TRIS/HCl pH 7.5 for 30 minutes at 37° C. Digested sections were fixed with 4% paraformaldehyde at room temperature for 20 minutes followed by 3 washes in PBS for 5 minutes. Apoptotic nuclei were identified using the In Situ Cell Death Detection Kit (Roche). Nuclei were stained with DAPI and sections were mounted with Gel-Mount.

GFAP-DN-erbB4 mice [7] = experiment: Electron microscopy / morphometric analysis of Remak bundles in GFAP-DN-erbB4 mice; assay type: in vivo, mouse; conditions: 4-week topical treatment, 1.2 mM cream
Method: as §5
(§6) Plastic Embedding and Electron Microscopy. Tissue was prepared as in (6). Briefly, mice were perfused intracardially with 2% paraformaldehyde, 2.5% gluteraldehyde and 0.03% picric acid in 0.1 M cacodylate buffer (pH 7.2). Tissue was post-fixed overnight at 4° C. and embedded in Epon. Ultrathin sections were cut, collected on cellodin-coated grids and stained using uranyl acetate and lead citrate. Photographs were taken using the Tecnai G^2 Spirit BioTWIN transmission electron microscope.

[8] = tested on: GFAP-DN-erbB4 and wild type mice; experiment: Mechanical sensitivity (von Frey filaments) after topical XIB4035 cream; assay type: in vivo; conditions: all groups (GFAP-DN-erbB4 and wild type) after 4 weeks of topical treatment, 1.2 mM cream
Method: as §1, §2

RTX-injected mice [9] = experiment: Remak bundle structure (electron microscopy) in RTX-induced SFN; assay type: in vivo, mouse; conditions: topical cream 1.2 mM twice daily for one week
From the text: as §3, §4, §5, §6

GFAP-DN-erbB4 mice [10] = experiment: Footpad skin innervation (PGP9.5 immunohistochemistry) in GFAP-DN-erbB4 mice; assay type: in vivo, mouse; conditions: 4-week topical treatment, 1.2 mM cream
Method: as §5
(§7) Immunohistochemistry. Mice were anesthetized with 2.5% Avertin and footpad skin was removed and immersion fixed in 4% paraformaldehyde, 14% picric acid in 0.1 M phosphate buffer (pH 7.3) overnight at 4° C. and cryoprotected in 20% sucrose overnight at 4° C. Tissues were embedded in OCT and sectioned at 30 µm and stained as floating sections by washing 3 times for 5 minutes in PBS+0.1% Triton-X 100, blocked for 30 minutes in PBS+0.1% Triton-X 100+10% normal goat serum and then incubated, PGP9.5 rabbit polyclonal antibody (Ultraclone, 1:1000), overnight at 4° C. Sections were washed 3 times for 10 minutes in PBS+0.1% Triton-X 100 then incubated in donkey anti-rabbit Alexa-488 (Invitrogen) 1:300 for 2 hours at room temperature. […]

wild type mice [11] = experiment: Footpad skin innervation (PGP9.5 immunohistochemistry) in wild type mice; assay type: in vivo, mouse; conditions: 4-week topical treatment, 1.2 mM cream
Method: as §5, §7

GFR[…]1 GDNF receptor [12] = target: T2, GFR[…]1 GDNF receptor (Mus musculus, UniProt P97785); conditions: murine cells; reference 11; cited from earlier work
T2 sequence (P97785 25-430): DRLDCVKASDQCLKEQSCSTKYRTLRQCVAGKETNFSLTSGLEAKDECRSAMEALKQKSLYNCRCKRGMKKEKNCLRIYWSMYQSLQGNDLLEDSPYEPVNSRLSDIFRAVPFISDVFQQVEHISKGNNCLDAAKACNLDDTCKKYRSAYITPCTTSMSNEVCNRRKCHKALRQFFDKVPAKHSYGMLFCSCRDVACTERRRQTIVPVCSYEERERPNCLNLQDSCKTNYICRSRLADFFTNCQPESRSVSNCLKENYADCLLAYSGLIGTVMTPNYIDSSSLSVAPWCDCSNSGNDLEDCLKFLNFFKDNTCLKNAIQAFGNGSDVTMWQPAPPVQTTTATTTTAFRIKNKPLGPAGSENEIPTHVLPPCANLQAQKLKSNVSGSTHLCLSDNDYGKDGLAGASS

Structure (SMILES): CCN(CC)CCCC(C)Nc1cc(/C=C/c2ccccc2Cl)nc2cc(Cl)ccc12 (centres unmarked) [XIB4035, N4-{7-chloro-2-[(E)-2-(2-chloro-phenyl)-vinyl]-quinolin-4-yl}-N1,N1-diethyl-pentane-1,4-diamine]
- behavior in response to noxious thermal stimulus (wild type mice [1]): remained normal
- activation of the Ret co-receptor by binding to the GDNF receptor (GFR[…]1 GDNF receptor [2]): activate the Ret co-receptor
- thermal nociception (hot plate, response to noxious thermal stimulus) (GFAP-DN-erbB4 mice [3]): dramatic preservation of thermal nociception
- innervation of the skin (RTX-injected mice [4]): preserved
- thermal nociception (RTX-injected mice [5]; RTX model, cream 1.2 mM twice daily for one week, started at RTX injection or 12 hours later (similar results)): greatly improved thermal nociception
- ability to respond to noxious heat (paw withdrawal latency) (RTX-injected mice [5]; RTX-injected mice, seven days after RTX, vs control cream): remarkable preservation of their ability to respond to noxious heat
- NMSC apoptosis (GFAP-DN-erbB4 mice [6]): significantly reduced
- degeneration of Remak bundles and c-fiber axons (GFAP-DN-erbB4 mice [7]): prevented the degeneration of Remak bundles and c-fiber axons
- number of c-fibers per Remak bundle (morphometric analysis) (GFAP-DN-erbB4 mice [7]): preserved
- size of c-fiber axons (morphometric analysis) (GFAP-DN-erbB4 mice [7]): preserved
- response thresholds to punctate mechanical stimuli (mechanoreception) [8]: no effect on mechanoreception
- c-fiber area (RTX-injected mice [9]; RTX-induced SFN): improved
- number of fibers per Remak bundle (RTX-injected mice [9]; RTX-induced SFN): improved
- Remak bundle structure (RTX-injected mice [9]; RTX-injected mice): significantly improved
- sensory nerve terminals in the footpad skin (GFAP-DN-erbB4 mice [10]): prevented degeneration of sensory nerve terminals
- density of nerve terminals in skin (wild type mice [11]): increased the density of nerve terminals
- activation of the Ret co-receptor by binding to the GDNF receptor (GFR[…]1 GDNF receptor [12]): activate the Ret co-receptor
